Experiment [1] deals with T1, c-MET kinase (Seq. ID no. 2) (Homo sapiens, UniProt P08581).
T1 construct: purchased Invitrogen PV3143
As to the kind of experiment: c-MET Kinase Assay (ADP production, pyruvate kinase/lactate dehydrogenase coupled). It counts as biochemical. The conditions noted are these: read-out: cMET Enzyme Assay. On the procedure: In this assay, the oxidation of NADH (thus the decrease at A340 nm) was continuously monitored spectrophometrically. […] Test compounds were incubated with C-Met (Seq. ID no. 2) and other reaction reagents at 22° C. for 0.5 h before ATP (100 μM) was added to start the reaction. The absorption at 340 nm was monitored continuously for 2 hours at 30° C. on Polarstar Optima plate reader (BMG). The reaction rate was calculated using the 1.0 to 2.0 h time frame. Percent inhibition was obtained by comparison of reaction rate with that of a control (i.e. with no test compound). IC50 values were calculated from a series of percent inhibition values determined at a range of inhibitor concentrations using software routines as implemented in the GraphPad Prism software package.

For the next experiment, the system named is EBC-1 cells. As to the kind of experiment: EBC-1 Cell Proliferation Assay (resazurin). It counts as cell-based. As to conditions: Homo sapiens, 67 h + 5 h resazurin, read-out: EBC1 Cell Proliferation. The method, then: EBC-1 cells (catalog #JCRB0820) were obtained from the Japan Health Science Research Resources Bank, Osaka, Japan. Briefly, cells were grown in DMEM supplemented with 10% characterized fetal bovine serum (Invitrogen, Carlsbad, Calif.) at 37 degrees Celsius, 5% CO2, 95% humidity. Cells were allowed to expand until reaching 70-95% confluency at which point they were subcultured or harvested for assay use.
EBC-1 Cell Proliferation Assay
A serial dilution of test compound was dispensed into a 96-well black clear bottom plate (Corning, Corning, N.Y.). For each cell line, five thousand cells were added per well in 200 μL complete growth medium. Plates were incubated for 67 hours at 37 degrees Celsius, 5% CO2, 95% humidity. […] Data was analyzed using Prism software (Graphpad, San Diego, Calif.) to calculate IC50 values.
In general terms: The colour change of resazurin is a common sign of viable cells or microbes.

The target of experiment [2] is T2, c-KIT kinase (Seq. ID no. 1) (Homo sapiens, UniProt P10721).
T2 construct: purchased ProQinase
T2 sequence (P10721 with tags, fused parts or gaps): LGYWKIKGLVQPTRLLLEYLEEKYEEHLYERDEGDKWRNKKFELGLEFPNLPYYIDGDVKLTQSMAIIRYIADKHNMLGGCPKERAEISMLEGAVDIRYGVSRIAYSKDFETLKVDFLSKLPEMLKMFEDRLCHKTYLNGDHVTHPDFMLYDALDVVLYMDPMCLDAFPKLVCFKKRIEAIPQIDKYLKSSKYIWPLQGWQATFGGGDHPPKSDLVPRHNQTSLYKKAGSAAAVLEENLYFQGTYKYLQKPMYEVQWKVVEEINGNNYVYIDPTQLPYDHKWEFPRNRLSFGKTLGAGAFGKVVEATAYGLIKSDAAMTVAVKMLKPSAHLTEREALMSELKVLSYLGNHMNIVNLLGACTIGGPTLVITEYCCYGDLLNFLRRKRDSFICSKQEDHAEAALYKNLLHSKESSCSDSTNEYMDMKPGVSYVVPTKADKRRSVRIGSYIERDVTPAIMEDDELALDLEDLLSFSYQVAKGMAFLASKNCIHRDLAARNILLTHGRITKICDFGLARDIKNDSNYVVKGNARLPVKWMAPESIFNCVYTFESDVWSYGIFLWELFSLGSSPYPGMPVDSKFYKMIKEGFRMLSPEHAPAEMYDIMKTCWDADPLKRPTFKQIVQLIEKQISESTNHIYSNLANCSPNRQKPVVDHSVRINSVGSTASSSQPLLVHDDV
As to the kind of experiment: c-KIT kinase Assay (ADP production, pyruvate kinase/lactate dehydrogenase coupled). It counts as biochemical. The conditions noted are these: read-out: cKIT Enzyme Assay. On the procedure: In this assay, the oxidation of NADH (thus the decrease at A340 nm) was continuously monitored spectrophometrically. […] The absorption at 340 nm was monitored continuously for 0.5 hours at 30° C. on Polarstar Optima plate reader (BMG). The reaction rate was calculated using the 0 to 0.5 h time frame. Percent inhibition was obtained by comparison of reaction rate with that of a control (i.e. with no test compound). IC50 values were calculated from a series of percent inhibition values determined at a range of inhibitor concentrations using software routines as implemented in the GraphPad Prism software package.

Experiment [3] concerns the target KDR kinase (Seq ID No. 3) (Homo sapiens, UniProt P35968, DEL940-989/E990V). As to the kind of experiment: KDR Kinase Assay (assays K1, K2, K3). It counts as biochemical. The conditions noted are these: assay variant K1, K2 or K3 not stated; read-out: KDR Enzyme Assay.
For another experiment, the target named is T3, PDGFRα kinase (Homo sapiens, UniProt P16234).
T3 construct: purchased Invitrogen
T3 sequence (P16234 24-1089): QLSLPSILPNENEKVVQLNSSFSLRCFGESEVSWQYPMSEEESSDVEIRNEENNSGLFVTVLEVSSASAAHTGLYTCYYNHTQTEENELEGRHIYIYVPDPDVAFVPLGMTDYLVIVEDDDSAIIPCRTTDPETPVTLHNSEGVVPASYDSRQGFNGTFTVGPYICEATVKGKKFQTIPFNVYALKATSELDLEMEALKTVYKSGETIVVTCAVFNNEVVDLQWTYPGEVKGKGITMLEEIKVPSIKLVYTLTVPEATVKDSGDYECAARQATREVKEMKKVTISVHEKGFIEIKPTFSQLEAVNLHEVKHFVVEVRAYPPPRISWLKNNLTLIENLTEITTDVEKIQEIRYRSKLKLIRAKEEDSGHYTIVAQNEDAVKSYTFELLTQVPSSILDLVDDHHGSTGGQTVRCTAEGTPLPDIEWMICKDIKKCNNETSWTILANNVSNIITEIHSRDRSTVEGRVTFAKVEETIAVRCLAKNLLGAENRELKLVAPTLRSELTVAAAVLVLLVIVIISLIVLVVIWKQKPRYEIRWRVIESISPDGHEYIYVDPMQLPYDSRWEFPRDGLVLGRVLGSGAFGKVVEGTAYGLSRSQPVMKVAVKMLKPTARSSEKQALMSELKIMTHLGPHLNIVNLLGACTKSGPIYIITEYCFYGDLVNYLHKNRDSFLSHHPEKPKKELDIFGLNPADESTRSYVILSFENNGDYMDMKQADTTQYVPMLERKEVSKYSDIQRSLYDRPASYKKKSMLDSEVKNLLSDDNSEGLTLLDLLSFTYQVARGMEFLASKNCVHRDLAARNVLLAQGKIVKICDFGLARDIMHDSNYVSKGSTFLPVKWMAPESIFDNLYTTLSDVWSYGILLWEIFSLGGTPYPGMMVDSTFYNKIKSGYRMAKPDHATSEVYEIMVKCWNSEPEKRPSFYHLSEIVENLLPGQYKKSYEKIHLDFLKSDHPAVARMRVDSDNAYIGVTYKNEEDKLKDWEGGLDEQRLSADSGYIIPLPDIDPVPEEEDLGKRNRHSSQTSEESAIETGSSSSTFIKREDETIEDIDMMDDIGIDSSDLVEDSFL
As to the kind of experiment: PDGFRα Kinase Assay. The format is biochemical. As to conditions: read-out: PDGFRa Enzyme Assay. The method, then: (§1) Activity of PDGFRα kinase was determined by following the production of ADP from the kinase reaction through coupling with the pyruvate kinase/lactate dehydrogenase system. In this assay, the oxidation of NADH (thus the decrease at A340 nm) was continuously monitored spectrophometrically. The reaction mixture (100 μl) contained PDGFRα (Invitrogen, 10 nM), polyE4Y (1 mg/ml), MgCl2 (10 mM), pyruvate kinase (4 units), lactate dehydrogenase (0.7 units), phosphoenol pyruvate (1 mM) and NADH (0.28 mM) and ATP (500 μM) in a 90 mM Tris buffer containing 0.2% octyl-glucoside and 1% DMSO, pH 7.5. The inhibition reaction was started by mixing serial diluted test compound with the above reaction mixture. The absorption at 340 nm was monitored continuously for 4 hours at 30° C. on a Polarstar Optima or Synergy 2 plate reader. The reaction rate was calculated using the 2 to 3 h time frame. Percent inhibition was obtained by comparison of reaction rate with that of a control (i.e. with no test compound). IC50 values were calculated from a series of percent inhibition values determined at a range of inhibitor concentrations using software routines as implemented in the GraphPad Prism software package.

A further experiment deals with T4, PDGFRβ (Homo sapiens, UniProt P09619).
T4 construct: purchased Invitrogen
T4 sequence (P09619 33-1106): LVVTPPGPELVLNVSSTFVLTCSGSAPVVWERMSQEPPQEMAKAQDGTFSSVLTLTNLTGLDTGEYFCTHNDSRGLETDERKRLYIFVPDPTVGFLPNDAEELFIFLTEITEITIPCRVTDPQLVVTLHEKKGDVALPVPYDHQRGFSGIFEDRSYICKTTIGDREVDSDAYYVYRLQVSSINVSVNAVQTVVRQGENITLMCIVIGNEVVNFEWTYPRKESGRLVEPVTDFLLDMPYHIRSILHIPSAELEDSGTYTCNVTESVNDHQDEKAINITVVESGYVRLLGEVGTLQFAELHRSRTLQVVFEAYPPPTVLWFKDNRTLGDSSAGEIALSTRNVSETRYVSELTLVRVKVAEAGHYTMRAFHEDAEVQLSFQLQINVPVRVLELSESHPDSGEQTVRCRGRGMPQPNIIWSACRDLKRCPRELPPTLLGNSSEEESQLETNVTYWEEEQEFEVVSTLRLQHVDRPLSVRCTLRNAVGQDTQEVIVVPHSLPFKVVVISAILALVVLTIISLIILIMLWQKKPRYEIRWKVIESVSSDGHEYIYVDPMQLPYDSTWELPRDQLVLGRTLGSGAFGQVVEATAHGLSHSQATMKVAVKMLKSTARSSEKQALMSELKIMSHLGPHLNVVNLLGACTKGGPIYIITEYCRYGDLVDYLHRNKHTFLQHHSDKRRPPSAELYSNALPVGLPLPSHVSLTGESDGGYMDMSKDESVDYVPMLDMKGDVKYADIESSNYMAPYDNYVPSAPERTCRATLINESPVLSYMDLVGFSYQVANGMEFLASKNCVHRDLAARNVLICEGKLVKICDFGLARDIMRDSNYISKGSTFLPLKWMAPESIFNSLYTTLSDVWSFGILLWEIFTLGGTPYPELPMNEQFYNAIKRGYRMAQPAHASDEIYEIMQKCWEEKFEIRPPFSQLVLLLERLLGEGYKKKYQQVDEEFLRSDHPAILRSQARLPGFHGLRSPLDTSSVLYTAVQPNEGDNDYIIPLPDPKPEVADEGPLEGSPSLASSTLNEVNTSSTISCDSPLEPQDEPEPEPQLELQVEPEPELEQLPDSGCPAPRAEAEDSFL
As to the kind of experiment: PDGFRβ Kinase Assay. It counts as biochemical. As to conditions: read-out: PDGFRb Enzyme Assay.

A further experiment deals with T5, FMS kinase (Homo sapiens, UniProt P07333).
T5 construct: purchased Invitrogen or Millipore
T5 sequence (P07333 20-972): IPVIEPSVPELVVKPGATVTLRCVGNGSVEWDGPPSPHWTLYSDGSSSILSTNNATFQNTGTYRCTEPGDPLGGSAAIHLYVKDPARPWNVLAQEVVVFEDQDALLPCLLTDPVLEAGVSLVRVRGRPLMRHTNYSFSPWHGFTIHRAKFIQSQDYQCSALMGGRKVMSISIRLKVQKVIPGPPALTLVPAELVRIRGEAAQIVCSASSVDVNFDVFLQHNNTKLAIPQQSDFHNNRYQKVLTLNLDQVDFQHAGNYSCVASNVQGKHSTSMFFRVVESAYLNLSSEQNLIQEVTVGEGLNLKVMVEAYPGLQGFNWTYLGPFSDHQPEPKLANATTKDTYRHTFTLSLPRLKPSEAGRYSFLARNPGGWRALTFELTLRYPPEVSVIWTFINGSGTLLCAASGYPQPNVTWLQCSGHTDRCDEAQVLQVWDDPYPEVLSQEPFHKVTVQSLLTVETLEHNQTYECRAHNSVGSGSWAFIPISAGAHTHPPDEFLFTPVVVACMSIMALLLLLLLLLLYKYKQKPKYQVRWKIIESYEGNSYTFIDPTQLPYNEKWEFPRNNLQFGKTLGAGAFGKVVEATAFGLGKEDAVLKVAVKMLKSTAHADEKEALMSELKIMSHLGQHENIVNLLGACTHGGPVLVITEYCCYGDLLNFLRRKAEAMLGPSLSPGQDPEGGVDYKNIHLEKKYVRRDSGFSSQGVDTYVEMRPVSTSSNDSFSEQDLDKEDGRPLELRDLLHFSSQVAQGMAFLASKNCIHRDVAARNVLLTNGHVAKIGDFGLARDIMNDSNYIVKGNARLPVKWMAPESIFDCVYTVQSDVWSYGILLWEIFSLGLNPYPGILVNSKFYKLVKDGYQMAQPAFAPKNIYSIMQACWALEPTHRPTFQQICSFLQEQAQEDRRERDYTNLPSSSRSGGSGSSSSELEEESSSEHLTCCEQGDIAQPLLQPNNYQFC
As to the kind of experiment: FMS Kinase Assay. The format is biochemical. As to conditions: read-out: FMS Enzyme Assay. On the procedure:
as §1, with “In” for “Activity of PDGFRα kinase was determined by following the production of ADP from the kinase reaction through coupling with the pyruvate kinase/lactate dehydrogenase system. In”, “FMS (purchased from Invitrogen or Millipore, 6” for “PDGFRα (Invitrogen, 10”

Among the data in patent publication US8486951B2 (Deciphera Pharmaceuticals, LLC, priority 2008, dated 2013) are IC50 values, retold here.

Some results are limits rather than exact numbers.

Sequence of KDR kinase (Seq ID No. 3) (P35968 with tags, fused parts or gaps DEL940-989/E990V): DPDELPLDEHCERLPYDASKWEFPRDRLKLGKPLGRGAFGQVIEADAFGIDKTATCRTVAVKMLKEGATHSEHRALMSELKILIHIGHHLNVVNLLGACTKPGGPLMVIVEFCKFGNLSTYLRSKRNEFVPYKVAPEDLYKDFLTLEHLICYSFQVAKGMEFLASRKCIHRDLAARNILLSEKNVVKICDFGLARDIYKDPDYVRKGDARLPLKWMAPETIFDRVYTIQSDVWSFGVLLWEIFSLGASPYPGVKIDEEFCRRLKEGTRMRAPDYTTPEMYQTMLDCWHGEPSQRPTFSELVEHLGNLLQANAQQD
T1 sequence (P08581 with tags, fused parts or gaps): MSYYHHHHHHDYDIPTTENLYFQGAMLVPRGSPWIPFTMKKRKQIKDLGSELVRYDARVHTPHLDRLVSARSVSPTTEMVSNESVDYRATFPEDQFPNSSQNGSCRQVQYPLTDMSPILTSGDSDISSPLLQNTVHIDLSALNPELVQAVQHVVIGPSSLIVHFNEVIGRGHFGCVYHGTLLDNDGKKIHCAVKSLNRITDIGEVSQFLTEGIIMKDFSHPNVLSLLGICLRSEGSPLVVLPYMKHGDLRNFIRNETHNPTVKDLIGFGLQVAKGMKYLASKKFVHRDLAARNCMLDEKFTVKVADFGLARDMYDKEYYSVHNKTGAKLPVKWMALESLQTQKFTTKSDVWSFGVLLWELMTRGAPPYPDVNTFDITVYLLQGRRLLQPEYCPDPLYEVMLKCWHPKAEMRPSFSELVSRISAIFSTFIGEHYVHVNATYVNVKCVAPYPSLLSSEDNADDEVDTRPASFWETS

For the molecule `O=C(Nc1ccc(F)cc1)C1(C(=O)Nc2ccc(Oc3ccnc(-c4cn[nH]c4)c3)c(F)c2)CC1` [Example 31, N-(4-(2-(1H-pyrazol-4-yl)pyridin-4-yloxy)-3-fluorophenyl)-N′-(4-fluorophenyl)cyclopropane-1,1-dicarboxamide], the values for the IC50 (in experiment [1]; in the experiment with EBC-1 cells) were < 200 nM and < 2000 nM, respectively.
For `CCCn1cc(-c2cc(Oc3ccc(NC(=O)C4(C(=O)Nc5ccc(F)cc5)CC4)cc3F)ccn2)cn1` [Example 20, N-(3-fluoro-4-(2-(1-propyl-1H-pyrazol-4-yl)pyridin-4-yloxy)phenyl)-N′-(4-fluorophenyl)cyclopropane-1,1-dicarboxamide], the IC50 in the experiment with EBC-1 cells is < 2000 nM.
As to `Cn1cc(-c2cc(Oc3cc(F)c(NC(=O)C4(C(=O)Nc5ccc(F)cc5)CC4)cc3Cl)ccn2)cn1` [Example 47, N-(5-chloro-2-fluoro-4-(2-(1-methyl-1H-pyrazol-4-yl)pyridin-4-yloxy)phenyl)-N′-(4-fluorophenyl)cyclopropane-1,1-dicarboxamide], the IC50 in experiment [1] was < 200 nM; in experiment [2], < 200 nM; in experiment [3], < 2000 nM; on PDGFRα kinase it was < 200 nM; on PDGFRβ, < 10000 nM; in the experiment with EBC-1 cells, < 200 nM.
For the molecule `C[C@@H](NC(=O)C1(C(=O)Nc2ccc(Oc3ccnc(-c4cnn(C)c4)c3)c(F)c2)CC1)c1ccccc1` [Example 17, N-(3-fluoro-4-(2-(1-methyl-1H-pyrazol-4-yl)pyridin-4-yloxy)phenyl)-N′-((R)-1-phenylethyl)cyclopropane-1,1-dicarboxamide], the IC50 in experiment [2] is < 2000 nM; in experiment [3], < 10000 nM; at FMS kinase it was < 200 nM; on PDGFRα kinase, < 10000 nM; at PDGFRβ, < 10000 nM.
Take `Cn1cc(-c2cc(Oc3c(F)cc(NC(=O)NC(=O)Cc4ccc(F)cc4)cc3F)ccn2)cn1` [Example 48, 1-(3,5-difluoro-4-(2-(1-methyl-1H-pyrazol-4-yl)pyridin-4-yloxy)phenyl)-3-(2-(4-fluorophenyl)acetyl)urea]: the IC50 is < 10000 nM in experiment [1]; < 2000 nM in experiment [2]; < 2000 nM in experiment [3]; < 10000 nM at FMS kinase; < 10000 nM on PDGFRα kinase; < 10000 nM on PDGFRβ.
Take `Cn1cc(-c2cc(Oc3cc(F)c(NC(=O)NC(=O)Cc4ccc(F)cc4)cc3Cl)ccn2)cn1` [Example 46, 1-(5-chloro-2-fluoro-4-(2-(1-methyl-1H-pyrazol-4-yl)pyridin-4-yloxy)phenyl)-3-(2-(4-fluorophenyl)acetyl)urea]: the IC50 was < 200 nM in experiment [1]; < 200 nM in experiment [2]; < 2000 nM in experiment [3]; < 200 nM at PDGFRα kinase; < 200 nM on PDGFRβ; < 200 nM in the experiment on EBC-1 cells.
Consider `CCn1cc(-c2cc(Oc3ccc(NC(=O)C4(C(=O)Nc5ccc(F)cc5)CC4)cc3F)ccn2)cn1` [Example 19, N-(4-(2-(1-ethyl-1H-pyrazol-4-yl)pyridin-4-yloxy)-3-fluorophenyl)-N′-(4-fluorophenyl)cyclopropane-1,1-dicarboxamide], for which the IC50 in the experiment with EBC-1 cells is < 2000 nM.
For the molecule `Cn1cc(-c2cc(Oc3ccc(NC(=O)C4(C(=O)Nc5ccc(F)cc5)CC4)cc3Cl)ccn2)cn1` [Example 30, N-(3-chloro-4-(2-(1-methyl-1H-pyrazol-4-yl)pyridin-4-yloxy)phenyl)-N′-(4-fluorophenyl)cyclopropane-1,1-dicarboxamide], the IC50 in experiment [1] is < 200 nM; in experiment [2] it was < 200 nM; at PDGFRα kinase it was < 2000 nM; on PDGFRβ, < 10000 nM; in the experiment on EBC-1 cells it was < 2000 nM.
For the molecule `Cc1c(Oc2ccnc(-c3cnn(C)c3)c2)ccc(NC(=O)C2(C(=O)Nc3ccc(F)cc3)CC2)c1F` [Example 32, N-(2-fluoro-3-methyl-4-(2-(1-methyl-1H-pyrazol-4-yl)pyridin-4-yloxy)phenyl)-N-(4-fluorophenyl)cyclopropane-1,1-dicarboxamide], the IC50 is < 2000 nM in experiment [1], < 10000 nM in experiment [3] and < 2000 nM on FMS kinase.
With `O=C(Nc1ccc(F)cc1)C1(C(=O)Nc2cc(Oc3nccc(-c4cn[nH]c4)n3)ccc2F)CC1` [Example 55, N-(5-(4-(1H-pyrazol-4-yl)pyrimidin-2-yloxy)-2-fluorophenyl)-N′-(4-fluorophenyl)cyclopropane-1,1-dicarboxamide], the IC50 (in experiment [1]; in experiment [2]; in experiment [3]; at FMS kinase; on PDGFRα kinase; at PDGFRβ) was < 10000 nM throughout.
Regarding `Cc1cc(-c2cc(Oc3ccc(NC(=O)C4(C(=O)Nc5ccc(F)cc5)CC4)c(F)c3)ccn2)on1` [Example 59, N-(2-fluoro-4-(2-(3-methylisoxazol-5-yl)pyridin-4-yloxy)phenyl)-N′-(4-fluorophenyl)cyclopropane-1,1-dicarboxamide], the IC50 in experiment [1] is < 200 nM; in experiment [3], < 10000 nM; on FMS kinase it was < 200 nM.
In the case of `Cn1cc(-c2cc(Oc3ccc(NC(=O)C4(C(=O)NCc5ccccc5)CC4)cc3F)ccn2)cn1` [Example 4, N-benzyl-N′-(3-fluoro-4-(2-(1-methyl-1H-pyrazol-4-yl)pyridin-4-yloxy)phenyl)cyclopropane-1,1-dicarboxamide], the IC50 in experiment [2] is < 2000 nM; in experiment [3], < 2000 nM; at FMS kinase it was < 200 nM; on PDGFRα kinase it was < 10000 nM; on PDGFRβ, < 10000 nM.
With `Cn1cc(-c2cc(Oc3ccc(NC(=O)C4(C(=O)Nc5ccc(F)cc5)CC4)cn3)ccn2)cn1` [Example 38, N-(4-fluorophenyl)-N′-(6-(2-(1-methyl-1H-pyrazol-4-yl)pyridin-4-yloxy)pyridin-3-yl)cyclopropane-1,1-dicarboxamide], the IC50 in experiment [1] is < 2000 nM; in experiment [3] it was < 10000 nM; at FMS kinase it was < 10000 nM.
For the molecule “1-(2,3-difluoro-4-(2-(1H-pyrazol-4-yl)pyridin-4-yloxy)phenyl)-3-(2-(4-fluorophenyl)acetyl)urea [Example 43]”, the IC50 in experiment [1] is < 2000 nM; in experiment [2] it was < 2000 nM; in experiment [3], < 10000 nM; at FMS kinase it was < 200 nM; on PDGFRα kinase, < 200 nM; at PDGFRβ, < 2000 nM.
